These results are taken from PubChem BioAssay AID651717 (Broad Institute, 2012).

SMILES strings stand for the structures.

The assay deals with mESC Bmi1-luciferase reporter, firefly/renilla ratio, 24 h. Kind of assay: compounds raising Bmi1 reporter signal – mouse embryonic stem cells, luciferase, cherry-pick, esBAF inhibitor project, dose response (AID 651717).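 Note: luciferase knocked into Bmi1 locus with EF-1a renilla as cell number control; rising ratio signals esBAF inhibition which derepresses Bmi1.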
Consider `CS(=O)(=O)c1ccccc1C(=O)Nc1ccc(-c2nc3ccccc3[nH]2)cc1`, for which the AC40 is 3.96 µM.

In the case of `Cn1c2nc3ccccc3c-2nc2ccccc21`, the AC40 was 4.33 µM.

On to `O=C(Nc1ccc2c(c1)C(=O)c1ccccc1-2)c1ccccc1`, for which the AC40 was 1.08 µM.

For the compound `CN(C(=O)c1ccc2c(Cl)c3c(nc2c1)CCC3)c1ccccc1`, the AC40 was 6.63 µM.

With `Cc1cc(Br)ccc1OCc1nc(-c2cccnc2)no1`, the AC40 is 9.06 µM.

Consider `CN(C)c1ccccc1-c1csc(N2CCC(C(N)=O)CC2)n1`, for which the AC40 was under 0.26 µM.

On to `CCN(C(=O)c1cccs1)c1nnc(-c2ccncc2)s1`, for which the AC40 is 1.05 µM.

Regarding `CC(C)(C)Nc1nc(Cl)nc(Nc2ccccc2)n1`, the AC40 is 2.09 µM.

Take `O=C(OCc1ccccc1)N1CCC2CC1c1cc(/C=C/CCCSc3ncccn3)ccc12` (stereo unspecified): the AC40 is 12.2 µM.

With `Cc1ccc(SCCN2CCC(C)CCC2=O)cc1` (stereo unspecified), the AC40 was 2.74 µM.

On to `Cc1cc(C(=O)Cn2cnc3ccccc3c2=O)c(C)n1C1CC1`, for which the AC40 was 2.92 µM.

As to `CCCC1CCC(c2nc(-c3cccnc3)no2)CC1` (stereo unspecified), the AC40 is 2.04 µM.

As for `O=C(Cc1ccccn1)c1ccc(Cl)cc1`, the AC40 is 3.14 µM.

Regarding `O=C(Nc1ccc(Cl)cc1Cl)c1csc(-c2cccnc2)n1`, the AC40 was 6.82 µM.

As for `COc1ccc(C(=O)NCCS(=O)(=O)NCCc2ccccc2)cc1`, the AC40 is 0.726 µM.

Turning to `CN(CC(=O)Nc1ccccc1Br)C(=O)c1cc2c(s1)CCCCC2`, the AC40 is 2.75 µM.

As to `N#Cc1ccc(-c2cn3c(n2)SCC3)cc1`, the AC40 is 4.82 µM.

For the compound `O=C(CC(=O)c1ccccc1)Nc1ccccc1`, the AC40 was 3.94 µM.

As to `Cc1ccc(NC(=O)C2CCCN(c3ncccn3)C2)cc1C` (stereo unspecified), the AC40 is 4.21 µM.

Regarding `C/C(=N\OCc1ccc(C#N)cc1)c1ccc(S(=O)(=O)N(C)C)cc1`, the AC40 is 7.91 µM.

Take `COc1ccc(-c2cc(C(=O)N3CCCC3)no2)cc1OC`: the AC40 is 7.36 µM.

Take `Cc1ccc(Nc2nc(Cl)nc(NC(C)(C)C)n2)cc1`: the AC40 was 1.47 µM.

Regarding `Cc1cccc(C)c1OCc1cc(C(=O)N2CCC(C3CCCCC3)C2)no1` (stereo unspecified), the AC40 is 4.72 µM.

Regarding `COc1ccc(-c2cc3cc(OC)c(OC)cc3cn2)cc1`, the AC40 is 6.22 µM.

For `Oc1ccccc1/C=N/N1CCN(c2ccccn2)CC1`, the AC40 was 2.75 µM.

`COc1cccc(OCc2cc(C(=O)N(C)C3CCCCC3)no2)c1`: the AC40 is 4.53 µM.

`Cc1[nH]c2ccccc2c(=O)c1CN(C)Cc1ccccc1`: the AC40 is 10.4 µM.

For `Cc1nc(Nc2ccccc2)sc1C(=O)c1ccc(F)cc1`, the AC40 is 3.93 µM.

On to `O=C(NCCc1ccccc1)c1cccc(NC(=O)C2CCC2)c1`, for which the AC40 is 8.75 µM.

As to `Cc1ccc2c3c([nH]c2c1C)-c1nonc1CC3`, the AC40 was 4.53 µM.

On to `Cc1ccc(NC(=O)C2CCCN(c3ncccn3)C2)cc1F` (stereo unspecified), for which the AC40 was 1.16 µM.

With `Cc1ccc(NC(=O)C2CC3CCC2C3)c(Br)c1` (stereo unspecified), the AC40 is 1.22 µM.

`Cc1ccc(C)c(OCc2nc3ccccc3[nH]2)c1`: the AC40 was 5.29 µM.

On to `COC(=O)c1ccc(NC(=O)c2cc3sccc3n2C)cc1`, for which the AC40 is 6.75 µM.

For `O=C(Nc1ccc(SC(F)F)cc1)c1ccc2c(=O)n3c(nc2c1)CCC3`, the AC40 was 2.02 µM.

In the case of `CC(NC(=O)c1cc(COc2ccc(-n3cncn3)cc2)on1)c1ccc(F)cc1` (stereo unspecified), the AC40 was 5.4 µM.

For `Cc1ccc(S(=O)(=O)N2CCN(C(=O)c3ccc4ccccc4n3)CC2)c(C)c1`, the AC40 was 6.53 µM.

With `Cc1ccc(Cl)c2c(N=Nc3ccccc3)c(O)[nH]c12`, the AC40 is 0.93 µM.

Consider `COC(=O)C1CCc2c(ccc3c2CCCC3)C1=O` (stereo unspecified), for which the AC40 is 4.54 µM.

`Cc1nc(C)c(-c2csc(Nc3ccc(Cl)cn3)n2)s1`: the AC40 is 8.77 µM.

Take `COc1cccc(C(=O)Nc2ccc(Cl)c(C(F)(F)F)c2)c1`: the AC40 is 5.59 µM.

Consider `Cc1ccc(C(=O)CN2C(=O)NC3(CCCCCC3)C2=O)c(C)c1`, for which the AC40 was 1.63 µM.

With `COCOCCn1cc(CN2CCS(=O)(=O)N(Cc3ccc(-c4ccc(Cl)nc4)cc3)C(CC(C)C)C2=O)nn1` (stereo unspecified), the AC40 is 34.2 µM.

As to `Cc1ccc(N=Nc2cc(C)ccc2O)c(C)c1`, the AC40 was 3.74 µM.

Turning to `Cc1cc(C)c2nc(N3CCCC(C(=O)NC4CCCC4)C3)sc2c1` (stereo unspecified), the AC40 is 9.66 µM.

Consider `Cc1sc2nc(-c3cccnc3)nc(Cl)c2c1-c1ccccc1`, for which the AC40 is 19.5 µM.

As for `N#Cc1nc(COc2ccccc2)oc1N1CCCCC1`, the AC40 was 15.6 µM.

As to `CN(Cc1cccnc1)C(=O)c1cc(COc2ccc3c(c2)CCCC3)on1`, the AC40 was 0.9 µM.

As for `Cc1ccc(C(=O)Nc2ccc(Br)c(C(F)(F)F)c2)cc1`, the AC40 was 1.73 µM.

Regarding `O=C(N/N=C/c1ccc(Cl)cc1)Nc1ccccc1`, the AC40 is 5.34 µM.

With `Cc1cc(C)c2c(N)c(C(=O)Nc3ccccc3Br)sc2n1`, the AC40 is 2.16 µM.

On to `CC(=O)c1ccc(N2CCN(C(=O)c3ccc(Cn4c(=S)[nH]c5ccc(N6CCOCC6)cc5c4=O)cc3)CC2)cc1`, for which the AC40 was 24.8 µM.

As to `Cc1ccccc1NC(=O)c1ccc2c(c1)N(C)CCS2`, the AC40 was 3.39 µM.

In the case of `OC(c1ccccc1)c1nc(/C=C/c2ccccc2)cs1` (stereo unspecified), the AC40 is 4.88 µM.

Consider `Cc1nc2c(sc3nc4c(cc32)COC(C)(C)C4)c(=O)n1Cc1ccccc1`, for which the AC40 is 1.18 µM.

Consider `COc1ccc2c(c1)CC/C(=C/c1ccccn1)C2=O`, for which the AC40 is 1.86 µM.

For `O=C(NC1CCCCCCC1)c1c(O)c2ccccc2[nH]c1=O`, the AC40 was 2.19 µM.

Take `O=C(Nc1ccc(F)c(Cl)c1)c1cc(C2CCCN(C(=O)C3CC3)C2)on1` (stereo unspecified): the AC40 is under 0.26 µM.

On to `O=C(Nc1cccc(O)c1)c1ccc(Br)c(S(=O)(=O)N2CCCCC2)c1`, for which the AC40 is 17.6 µM.

For the compound `CC(C)(C)C(=O)N1CCN(c2nc3ccc(Br)cc3s2)CC1`, the AC40 is 1.53 µM.

`O=C(Cn1cc(C(F)(F)F)cc(Cl)c1=O)NCc1ccc(F)cc1`: the AC40 is 7.38 µM.

As to `CCC(=O)c1ccc(N2CCCC2)c(F)c1`, the AC40 was 6.47 µM.

As to `Fc1cc(Cl)cc2ccc(-c3ccccc3)nc12`, the AC40 was 1.45 µM.

Turning to `Cc1cccc(Oc2coc3cc(O)ccc3c2=O)c1`, the AC40 was 15.7 µM.

On to `COc1ccc(-c2cc(C(=O)Nc3ccc(NC(C)=O)cc3)[nH]n2)c(C)c1`, for which the AC40 was 1.21 µM.

As for `COc1ccc2nc3sc(C(=O)NCCN4CCc5ccccc5C4)cc3cc2c1`, the AC40 was 5.77 µM.

In the case of `NCCNC(=O)c1c(NC(=O)c2ccccc2)sc2c1CCCC2`, the AC40 is 34.4 µM.

As to `c1ccc(Oc2cc(-c3ccccc3)ncn2)cc1`, the AC40 was 2.16 µM.

Take `Nc1ccc(C#Cc2ccc3c(=O)c4ccccc4oc3c2)cc1`: the AC40 was 3.64 µM.

Regarding `COc1cccc(NC(=O)C(=O)NCC2CCCN2S(=O)(=O)c2cccs2)c1` (stereo unspecified), the AC40 was 1.25 µM.

With `COc1cc(OC)c2c(-c3cccc(/C=C/c4ccc(F)cc4)c3)cc(=O)oc2c1`, the AC40 is 3.49 µM.

In the case of `CC(C)Nc1nc(Cl)nc(Nc2ccccc2)n1`, the AC40 is 5.89 µM.

Consider `O=c1[nH]cnc2nc(-c3ccc(N(CCCl)CCCl)cc3)[nH]c12`, for which the AC40 is 0.965 µM.

Take `Cc1ccc(NC(=O)c2ccnc(C(C)(C)C)c2)cc1`: the AC40 is 1.95 µM.

With `Cn1c(/C=C/c2ccc(Br)cc2)nc2ccccc2c1=O`, the AC40 was 4.88 µM.

Regarding `Nc1ccc2c(c1)C(=O)c1ccc(N)cc1-2`, the AC40 is 0.55 µM.

In the case of `Cc1ccc(NC(=O)C2CCN(S(=O)(=O)c3ccc4ccccc4c3)CC2)nc1`, the AC40 was 6.53 µM.

Consider `CC(C)CN=c1cc(-c2ccccc2)oc2ccc(Cl)cc12`, for which the AC40 was 2.27 µM.

Turning to `COc1ccccc1C(=O)NCCC(=O)NC1CCC(C)CC1` (stereo unspecified), the AC40 was 4.6 µM.

As to `COc1cccc(NC(=O)CN(C)C(=O)CNC(=O)c2sc3ccccc3c2Cl)c1`, the AC40 is 4.99 µM.

In the case of `CO[C@H]1CN(C)C(=O)c2cc(NC(=O)NC(C)C)ccc2OC[C@@H](C)N(Cc2ccc(-c3ccccn3)cc2)C[C@@H]1C`, the AC40 is 22.6 µM.

For the compound `N#CCc1nc(CSc2nc3ccccc3o2)cs1`, the AC40 is 12.3 µM.

With `O=C(CC1CCCC1)Nc1ccc(Br)cc1`, the AC40 is 16 µM.

In the case of `CC(=O)Nc1nc(-c2ccc(-c3ccccc3)cc2)cs1`, the AC40 was 1.56 µM.

As to `COc1ccc(C(O)c2nc(-c3ccc4ccccc4c3)cs2)cc1` (stereo unspecified), the AC40 was 13 µM.

Take `Cn1c(/N=C(\N)c2ccccc2)nc2ccccc21`: the AC40 was 0.587 µM.

As to `CC(C)N1CC2(CC(c3ccccc3F)=NO2)CN1C(=O)c1ccc(C(C)(C)C)cc1` (stereo unspecified), the AC40 was 4.08 µM.

In the case of `Cc1sc(NC(=O)c2cccs2)nc1-c1ccccc1`, the AC40 was 5.47 µM.

As for `Cc1ccc(C)c(NC(=O)c2cc(-c3cc(C)c(C)cc3O)n[nH]2)c1`, the AC40 is 3.77 µM.

In the case of `O=C(Nc1cccc(-c2nc3ccccc3s2)c1)c1cc(-n2cnnc2)ccc1Cl`, the AC40 was 7.62 µM.

Consider `COc1ccc(C(=O)Nc2ccc3nc(C)c(C)nc3c2)cc1`, for which the AC40 was 8.3 µM.

As to `Cc1ccnc(NC(=O)c2ccc(Cl)c(S(=O)(=O)N3CCCCC3)c2)c1`, the AC40 is 11.7 µM.

For the compound `COc1ccc(C2=Nc3ccccc3NC(=O)C2N(C(=O)c2cnc(C)cn2)c2ccc(N3CCOCC3)cc2)cc1` (stereo unspecified), the AC40 is 21.8 µM.

Regarding `Cc1cc(=O)oc2cc(NC(=O)c3cccc(F)c3)ccc12`, the AC40 was 1.82 µM.

`COc1ccc(Nc2cc(C)c3c(O)cccc3n2)cc1`: the AC40 was 3.84 µM.

For `COc1ccccc1-c1nc(SCc2ccccn2)n[nH]1`, the AC40 is 8.67 µM.

Take `Cc1ccccc1C(=O)c1cccn1CC(=O)NCc1cccc(Cl)c1`: the AC40 was 13.6 µM.

Turning to `Cc1cc(N2CCCCC2)nc2ccc(NC(=O)CCC(=O)NCCC(C)C)cc12`, the AC40 was 16.6 µM.

For the compound `Clc1ccc(-c2csc(N3CCSCC3)n2)cc1`, the AC40 is 5.65 µM.

`O=C(COc1ccc(/C=N/NC(=O)c2cc3ccccc3o2)cc1Br)Nc1ccccc1`: the AC40 is 4.24 µM.

For the compound `COc1cc(/C=C/c2ccccc2)cc(OC)c1`, the AC40 was 2.93 µM.

With `COc1ccc(NC(=O)c2cc(-c3ccccc3Cl)on2)cc1`, the AC40 was 11.8 µM.

For the compound `O=C(Cn1c(/C=C/c2ccccc2)nc2ccccc21)Nc1ccc(F)cc1`, the AC40 is 2.78 µM.

Consider `Clc1ccc(OCc2nc(-c3ccncc3)no2)cc1`, for which the AC40 is 10.8 µM.

For the compound `O=C(NNC(=O)c1cccc2ccccc12)c1ccc2c(c1)OCO2`, the AC40 was 17.8 µM.

Turning to `COc1ccc(-c2csc(C(O)c3ccc(F)cc3)n2)cc1` (stereo unspecified), the AC40 was 1.54 µM.
